In brackets after ≈: the same amount, converted by molar mass. Several values for one entry are separate records, joined by “and”; a condition that tells them apart may be missing. Equal entries are not always repeated. Where two headings read alike, the source gives them in different places.
What was measured:
[1] = Hygroscopicity by dynamic moisture adsorption (DVS); format: physicochemical; conditions: for Hygroscopicity: 25° C./80% RH
Protocol: Dynamic moisture adsorption (DVS) was used to evaluate the hygroscopicity of compound A and salt forms under the condition of 25° C. and 80% RH.

[2] = Solid-state stability, 14 days, HPLC; format: physicochemical
Protocol: Compound A salts and Compound A were tested for their solid-state stability under the conditions of 25° C./60% RH and 40° C./75% RH.

[3] = Dynamic solubility in water and FaSSIF at 37° C.; format: physicochemical; conditions: for solubility compared to Compound A free base: both FaSSIF and water; for solubility at 1 h / solubility at 2 h / solubility at 4 h / solubility at 24 h: thermodynamic from solid, read-out: S: Solubility
[4] = test system: COLO 205 colorectal tumor xenograft; test: COLO 205 colorectal tumor xenograft; format: in vivo, mice; conditions: 15 mg/kg intraperitoneally
Protocol: A separate study of Compound A succinate was conducted in COLO 205 colorectal tumor xenograft. The tumor-bearing mice (n=8) were treated orally with vehicle (ultra-pure water), or Compound A succinate (50 or 100 mg/kg) once daily for 21 days. As a positive control chemotherapy 5-FU (15 mg/kg) was given intraperitoneally. […] 5-FU was also effective with a T/C=47.2% (Table 7).

[5] = Pharmacokinetic study of Compound A in male cynomolgus monkeys; format: in vivo
Protocol: Two groups of male cynomolgus monkeys (n=3 per group) were given Compound A by a single intravenous injection (i.v.) of 5 mg/kg, or intragastric administration (i.g.) of 50 mg/kg. Blood samples were collected at different time points. The exposure of Compound A in plasma samples were measured by LC-MS/MS method, and PK parameters (Table 8) were calculated using Phoenix WinNonlin 8.0 software.

[6] = test system: A2780 ovarian cancer cells; test: Subcutaneous A2780 ovarian cancer xenograft; format: in vivo, female BALB/c nude mice; conditions: 75 mg/kg orally once a day
Protocol: Compound A succinate was also assessed for in vivo anti-tumor activity in subcutaneous xenografts. Briefly, female BALB/c nude mice were inoculated with A2780 ovarian cancer cells; when the mean tumour volume reached 150-200 mm^3, animals were randomized to groups. The animals (n=8 per group) were treated orally with vehicle (ultra-pure water), Compound A succinate (62.5, 125 or 250 mg/kg), or Palbociclib (75 mg/kg) once a day for 14 consecutive days. Mice were observed daily for signs of toxicity and weight loss, and tumour volume measured every other day. […] Palbociclib was efficacious at 75 mg/kg, resulting in T/C of 42.8% (Table 6).

[7] = cynomolgus monkey, plasma, iv, i.v. 5 mg/kg
[8] = cynomolgus monkey, plasma, po, i.g. 50 mg/kg

Row | SMILES | Moisture absorbed at 25° C./80% RH [1] | Hygroscopicity [1] | Purity ([2]; 25° C./60% RH) | Relative purity ([2]; 25° C./60% RH) | Purity ([2]; 40° C./75% RH) | Relative purity ([2]; 40° C./75% RH) | S: Solubility ([3]; FaSSIF, 1 hour) | S: Solubility ([3]; FaSSIF, 2 hours) | S: Solubility ([3]; FaSSIF, 4 hours) | S: Solubility ([3]; FaSSIF, 24 hours) | S: Solubility ([3]; H2O, 1 hour) | S: Solubility ([3]; H2O, 2 hours) | S: Solubility ([3]; H2O, 4 hours) | S: Solubility ([3]; H2O, 24 hours) | solubility compared to Compound A free base [3] | other results
1 | CCN1CCN(Cc2ccc(Nc3ncc(F)c(-c4sc(NC5CCCC5)nc4C)n3)nc2)CC1.Cl [Compound A hydrochloride] | 3.4% | Hygroscopic | 97.6 area % | 99.9 % of initial | 97.7 area % | 100.0 % of initial | 2000 µg/mL | 2000 µg/mL | 2200 µg/mL | 2100 µg/mL | 6800 µg/mL | 7100 µg/mL | 7200 µg/mL | 6800 µg/mL | significantly increased | –
2 | CCN1CCN(Cc2ccc(Nc3ncc(F)c(-c4sc(NC5CCCC5)nc4C)n3)nc2)CC1.CS(=O)(=O)O [Compound A mesylate] | 14.4% | Extremely hygroscopic | 97.6 area % | 100.1 % of initial | 97.5 area % | 100.0 % of initial | 8800 µg/mL | 8300 µg/mL | 8400 µg/mL | 4400 µg/mL | 8200 µg/mL | 8300 µg/mL | 8600 µg/mL | 8500 µg/mL | significantly increased | –
3 | O=c1[nH]cc(F)c(=O)[nH]1 [Compound 5-FU, 5-FU, reference compound] | – | – | – | – | – | – | – | – | – | – | – | – | – | – | – | Inhibition of tumor growth (T/C) [4]: 47.2%; Tumor volume (±S) [4]: 799.62 ± 61.95 mm^3
4 | CCN1CCN(Cc2ccc(Nc3ncc(F)c(-c4sc(NC5CCCC5)nc4C)n3)nc2)CC1 [Compound A, N-Cyclopentyl-5-(2-((5-((4-ethylpiperazin-1-yl)methyl)pyridin-2-yl)amino)-5-fluoropyrimidin-4-yl)-4-methylthiazol-2-amine] | 1.4% | Slightly hygroscopic | 97.6 area % | 100.0 % of initial | 97.6 area % | 100.1 % of initial | – | – | – | – | – | – | – | – | – | solubility at 1 h ([3]; FaSSIF, 1 hour): 270 µg/mL (≈ 544 µM); solubility at 2 h ([3]; FaSSIF, 2 hours): 280 µg/mL (≈ 564 µM); solubility at 4 h ([3]; FaSSIF, 4 hours): 240 µg/mL (≈ 483 µM); solubility at 24 h ([3]; FaSSIF, 24 hours): 200 µg/mL (≈ 403 µM); solubility at 1 h ([3]; water, H2O, 1 hour): 220 µg/mL (≈ 443 µM); solubility at 2 h ([3]; water, H2O, 2 hours): 240 µg/mL (≈ 483 µM); solubility at 4 h ([3]; water, H2O, 4 hours): 240 µg/mL (≈ 483 µM); solubility at 24 h ([3]; water, H2O, 24 hours): 220 µg/mL (≈ 443 µM); AUC(0-inf) [5, 7]: 4560 ng·h/mL; AUC(0-t) [5, 7]: 4190 ng·h/mL; Cmax [5, 7]: 447 ng/mL; Vd [5, 7]: 9.8 L/kg; clearance [5, 7]: 19.4 mL/min/kg; half-life [5, 7]: 6.5 h; Cmax [5, 8]: 643 ng/mL; half-life [5, 8]: 8.3 h; F ([5]; i.g. 50 mg/kg): 21.8%
5 | CCN1CCN(Cc2ccc(Nc3ncc(F)c(-c4sc(NC5CCCC5)nc4C)n3)nc2)CC1.O=P(O)(O)O [Compound A phosphate] | 3.7% | Hygroscopic | 98.3 area % | 100.0 % of initial | 98.2 area % | 99.9 % of initial | 1700 µg/mL | 670 µg/mL | 470 µg/mL | 330 µg/mL | 450 µg/mL | 410 µg/mL | 440 µg/mL | 360 µg/mL | – | –
6 | CC(=O)c1c(C)c2cnc(Nc3ccc(N4CCNCC4)cn3)nc2n(C2CCCC2)c1=O [Palbociclib, reference compound] | – | – | – | – | – | – | – | – | – | – | – | – | – | – | – | Tumor volume (±S) ([6]; 14 days): 1850.1 ± 121.1 mm^3; Mean tumor growth inhibition (T/C) ([6]; day 14): 42.8% and 42.79%

— patent US20230399325A1, “SUCCINATE AND CRYSTAL FORM THEREOF AS THERAPEUTICS” (AUCENTRA THERAPEUTICS PTY LTD, priority 2020, published 2023)
